The results in this text go back to patent publication US9551711B2, “Compositions and methods for detecting nitration of PKG-1α and methods of use thereof” (Augusta University Research Institute, Inc., priority 2013, dated 2017).

One experiment has as its target T1, PKG-1α (Homo sapiens, UniProt Q13976).
T1 sequence (Q13976 2-671): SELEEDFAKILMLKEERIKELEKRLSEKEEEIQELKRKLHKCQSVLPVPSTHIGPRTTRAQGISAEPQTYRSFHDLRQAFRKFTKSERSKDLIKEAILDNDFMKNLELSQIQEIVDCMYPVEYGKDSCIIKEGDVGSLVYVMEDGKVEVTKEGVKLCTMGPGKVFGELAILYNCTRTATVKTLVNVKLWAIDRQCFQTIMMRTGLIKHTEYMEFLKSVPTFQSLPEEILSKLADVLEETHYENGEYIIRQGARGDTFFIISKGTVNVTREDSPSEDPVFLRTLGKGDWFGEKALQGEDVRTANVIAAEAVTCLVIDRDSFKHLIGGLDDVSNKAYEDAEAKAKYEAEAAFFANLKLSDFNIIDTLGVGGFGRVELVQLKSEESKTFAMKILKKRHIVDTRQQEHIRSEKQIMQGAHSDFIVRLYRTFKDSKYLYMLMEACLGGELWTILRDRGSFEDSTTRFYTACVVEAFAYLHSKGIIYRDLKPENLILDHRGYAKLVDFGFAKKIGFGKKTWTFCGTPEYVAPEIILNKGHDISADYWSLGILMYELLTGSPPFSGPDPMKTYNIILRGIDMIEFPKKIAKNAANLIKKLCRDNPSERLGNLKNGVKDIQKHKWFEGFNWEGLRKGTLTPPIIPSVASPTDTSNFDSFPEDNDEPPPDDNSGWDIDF
As to the kind of experiment: PKG catalytic activity, Michaelis-Menten kinetics for cGMP. Also on record: an expression plasmid containing a full length WT-PKG-1α cDNA; made in house; host or cells: HEK-293T; the results paragraph b304 says PASMC. The class given is biochemical. The method, then:
Total PKG activity was determined using a non-radioactive immunoassay in cell lysates, according to the manufacturer's directions. Briefly, protein samples were diluted in kinase reaction buffer containing Mg^2+ and ATP (125 μM) in the presence or absence of 8-Br cGMP (10 μM) and incubated in a 96 well plate pre-coated with a PKG substrate containing threonine residues phosphorylated by PKG.
After incubation for 30 min at 30° C. to allow the phosphorylation of the bound substrate, an HRP conjugated anti-phosphothreonine specific antibody was added to convert a chromogenic substrate to a colorimetric substrate that was subsequently read spectrophotometrically at 450 nm. The change in absorbance reflected the relative activity of PKG in the sample. The results were reported as pmols of phosphate incorporated into the GST-G substrate fusion protein by active PKG in the sample in the presence or absence of cGMP (10 μM) per minute at 30° C. per μg of protein (pmol/min/μg). […] The kinetic constants were determined using nonlinear regression (curve fit) analysis (GraphPad Prism Software Inc.).
To determine the Michaelis-Menten constant (Km) for cGMP, the kinase assay was performed, as mentioned above; however, the cGMP concentration was titrated from 0-10 μM, while the ATP concentration remained constant at 125 μM.

For experiment [1], the system named is pulmonary artery smooth muscle cells (PASMC). As to the kind of experiment: PASMC cell growth (cell count). In kind it is cell-based, lamb. The conditions noted are these: WT-PKG-1α transfected PASMC; SIN-1 500 μM, 48 h. The method, then:
Pulmonary artery smooth muscle cells (PASMC) were grown on a 10 cm dish to 75% confluence, transfected with WT-PKG-1α or Y247F-PKG-1α cDNA using a Qiagen transfection kit, according to manufacturer's instructions, and incubated at 37° C. for 20 h. […] The cells were then trypsinized, seeded onto a 6-well plate at a density of 2.5×10^4 cells per well, and grown for an additional 4 h in serum-free DMEM growth medium containing 1% FBS and antibiotics. The cells were then treated with or without SIN-1 (500 μM) and allowed to grow at 37° C. in the incubator for an additional 48 h. The cellular proliferation was evaluated by counting the cells with a hemacytometer (Cascade Biologicals™, Portland, Oreg.) after the trypsinization of the PASMC monolayers.
Primary cultures of pulmonary artery smooth muscle cells (PASMC) from 4-week old lambs were isolated by the explant technique, as previously described (Wedgwood, S., et al., Circulation Research 89, 357-364 (2001)). Briefly, a segment of the main pulmonary artery from a 4-week old lamb was excised and placed in a sterile 10 cm dish containing DMEM supplemented with 1 gm/1 glucose. The segment was stripped of adventitia with a sterile forceps. The main pulmonary artery segment was then cut longitudinally to open the vessel, and the endothelial layer was removed by gentle rubbing with a cell scraper. […]

The Km is the substrate concentration at which the rate is half of its maximum. Consider “3-morpholinosydnonimine N-ethylcarbamide [SIN-1]”, for which the “Vmax of the reaction” value at PKG-1α (WT PKG-1α after SIN-1 challenge, ATP 125 μM, cGMP 0-10 μM) was determined as 0.28 pmol/min/µg. Moreover, the Km at PKG-1α (WT-PKG-1α upon SIN-1 treatment, read-out: Michaelis-Menten constant (Km) for cGMP) was 8.91 nM. For the same substance, the proliferation result in experiment [1] is listed as “stimulated”.
